# Measurements reported in EP4692071A1, “PHOTOCHROMIC COMPOUND, NAPHTHOL DERIVATIVE, CURABLE COMPOSITION, OPTICAL ARTICLE, LENS, AND EYEGLASS” (TOKUYAMA CORPORATION, priority 2023, dated 2024).
# Experiment: Maximum absorption wavelength (λmax) after color development, spectrophotometer MCPD3000
# Assay type: physicochemical
# Settings: photochromic laminate by coating method, 40 µm photochromic layer on thiourethane lens, 0.25 mmol compound per 100 g monomers; at 522 nm absorption maximum
# Procedure, shortened: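 Read-out: absorbance at λmax, multichannel photodetector spectrophotometer. Colour density = ε(240) − ε(0), 240 s light, 23°C. τ1/2 = time for ε(240) − ε(0) to halve after light off. Residual rate compares density before and after 90 h xenon weathering.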
row,Compound,Maximum absorption wavelength (nm)
1,CCCC1(CCC)c2ccccc2-c2c1c1c(c3cc(OC)c(N(c4ccccc4)c4ccccc4)cc23)OC(c2ccc(OC)cc2)(c2ccc(N3CCOCC3)cc2)C=C1 (stereo not shown) [Example 7 Formula (50)],522

# Same assay, conditions: photochromic laminate by coating method, 40 µm photochromic layer on thiourethane lens, 0.25 mmol compound per 100 g monomers; at 615 nm absorption maximum
row,Compound,Maximum absorption wavelength (nm)
1,CCCC1(CCC)c2ccccc2-c2c1c1c(c3cc(OC)c(N(c4ccccc4)c4ccccc4)cc23)OC(c2ccc(OC)cc2)(c2ccc(N3CCOCC3)cc2)C=C1 (stereo not shown) [Example 7 Formula (50)],615

# Same assay, conditions: photochromic laminate prepared by coating method; after color development
row,Compound,Maximum absorption wavelength [nm]
1,CCCCC1(CCCC)c2cc(C(F)(F)F)ccc2-c2c1c1c(c3cc(C)c(N4CCc5ccccc54)cc23)OC(c2ccc(OC)cc2)(c2ccc(OC)c(C)c2)C=C1 (stereo not shown) [Formula (64A)],523
2,CCCc1ccc(C2(c3ccc(OC)cc3)C=Cc3c4c(c5cc(N6CCc7ccccc76)c(OC)cc5c3O2)-c2ccc(-c3ccc(C(F)(F)F)cc3)cc2C4(CCOC)CCOC)cc1 (stereo not shown) [Formula (85A)],530
3,CCCOc1ccc(C2(c3ccc(OC)cc3)C=Cc3c4c(c5cc(N6CCc7ccccc76)c(C)cc5c3O2)-c2ccccc2C4(CCC)CCC)cc1 (stereo not shown) [Formula (31A)],520

# Experiment: 23°C color optical density (A23): absorbancy difference ε(240)-ε(0) after 240 s light irradiation at 23°C
# Assay type: physicochemical
# Settings: photochromic laminate by coating method, 240 s irradiation, at the maximum absorption wavelength, at 522 nm absorption maximum
# Procedure, shortened: (§1)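 Photochromic plastic lens samples were irradiated for 240 s at 23°C, and colour density was taken as the absorbance change at the absorption maximum. Fading half-life was timed from the end of irradiation until that absorbance change fell by half. Durability compared colour density before and after xenon-lamp ageing.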
row,Compound,A23 (-)
1,CCCC1(CCC)c2ccccc2-c2c1c1c(c3cc(OC)c(N(c4ccccc4)c4ccccc4)cc23)OC(c2ccc(OC)cc2)(c2ccc(N3CCOCC3)cc2)C=C1 (stereo not shown) [Example 7 Formula (50)],1.19 -

# Same assay, conditions: photochromic laminate by coating method, 240 s irradiation, at the maximum absorption wavelength, at 615 nm absorption maximum
row,Compound,A23 (-)
1,CCCC1(CCC)c2ccccc2-c2c1c1c(c3cc(OC)c(N(c4ccccc4)c4ccccc4)cc23)OC(c2ccc(OC)cc2)(c2ccc(N3CCOCC3)cc2)C=C1 (stereo not shown) [Example 7 Formula (50)],1.14 -

# Experiment: 35°C color optical density (A35): absorbancy difference ε(240)-ε(0) after 240 s light irradiation at 35°C
# Assay type: physicochemical
# Settings: photochromic laminate by coating method, 240 s irradiation, at 522 nm absorption maximum
# Procedure, shortened: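 Color optical density at 35°C (A35) came from light exposure of the sample at 35°C lasting 240 seconds. At the first and second absorption wavelengths, the absorbancy before irradiation, ε(0), was subtracted from the absorbancy measured after irradiation, ε(240). This difference was taken as the measure of color optical density.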
row,Compound,A35 (-)
1,CCCC1(CCC)c2ccccc2-c2c1c1c(c3cc(OC)c(N(c4ccccc4)c4ccccc4)cc23)OC(c2ccc(OC)cc2)(c2ccc(N3CCOCC3)cc2)C=C1 (stereo not shown) [Example 7 Formula (50)],0.74 -

# Same assay, conditions: photochromic laminate by coating method, 240 s irradiation, at 615 nm absorption maximum
row,Compound,A35 (-)
1,CCCC1(CCC)c2ccccc2-c2c1c1c(c3cc(OC)c(N(c4ccccc4)c4ccccc4)cc23)OC(c2ccc(OC)cc2)(c2ccc(N3CCOCC3)cc2)C=C1 (stereo not shown) [Example 7 Formula (50)],0.71 -

# Experiment: High-temperature color development rate (A35/A23×100), temperature dependency
# Assay type: physicochemical
# Settings: photochromic laminate by coating method
# Procedure, shortened: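 The sample was irradiated with light for 240 seconds at 23°C and separately at 35°C. The gain in absorbance over the unirradiated state, ε(240)−ε(0), gave the color optical densities A23 and A35. A35 divided by A23, multiplied by 100, expressed how well color development holds up at the higher temperature.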
row,Compound,A35/A23 *100 (%)
1,CCCC1(CCC)c2ccccc2-c2c1c1c(c3cc(OC)c(N(c4ccccc4)c4ccccc4)cc23)OC(c2ccc(OC)cc2)(c2ccc(N3CCOCC3)cc2)C=C1 (stereo not shown) [Example 7 Formula (50)],62

# Same assay, conditions: photochromic laminate prepared by coating method
row,Compound,A35/A23 *100 [%]
1,CCCCC1(CCCC)c2cc(C(F)(F)F)ccc2-c2c1c1c(c3cc(C)c(N4CCc5ccccc54)cc23)OC(c2ccc(OC)cc2)(c2ccc(OC)c(C)c2)C=C1 (stereo not shown) [Formula (64A)],65
2,CCCc1ccc(C2(c3ccc(OC)cc3)C=Cc3c4c(c5cc(N6CCc7ccccc76)c(OC)cc5c3O2)-c2ccc(-c3ccc(C(F)(F)F)cc3)cc2C4(CCOC)CCOC)cc1 (stereo not shown) [Formula (85A)],69
3,CCCOc1ccc(C2(c3ccc(OC)cc3)C=Cc3c4c(c5cc(N6CCc7ccccc76)c(C)cc5c3O2)-c2ccccc2C4(CCC)CCC)cc1 (stereo not shown) [Formula (31A)],65

# Experiment: 23°C color fading half-life τ1/2 after 240 s light irradiation
# Assay type: physicochemical
# Settings: not given
# Procedure: • [1] Maximum Absorption Wavelength (λmax): The maximum absorption wavelength after color development, measured using a spectrophotometer (instantaneous multichannel photodetector MCPD3000) manufactured by Otsuka Electronics Co., Ltd. was used as an indicator for the color tone during the color development. • [2] 23°C Color Optical Density (A23): A difference between an absorbancy measured after light irradiation at 23°C for 240 seconds {ε(240)} and an absorbancy without light irradiation ε(0) at the maximum absorption wavelength was used as an indicator for the color optical density. […] 35°C Color Optical Density (A35): A difference between an absorbancy measured after light irradiation at 35°C for 240 seconds {ε(240)} and an absorbancy without light irradiation ε(0) at the first and second absorption wavelengths was used as an indicator for the color optical density. […] 23°C color fading half-life [τ1/2 (sec.)]: A time required for the absorbancy of the sample at the maximum absorption wavelength to decrease to 1/2 of {ε(240)-ε(0)} when the light irradiation is terminated after the light irradiation at 23°C for 240 seconds, was used as an indicator for the color fading speed. The shorter this time, the higher the color fading speed. • [6] Residual rate (A90/A0×100): The obtained photochromic plastic lens was subjected to accelerated deterioration using a xenon weather meter X25 manufactured by Suga Test Instruments Co., Ltd. for 90 hours. Subsequently, the color optical density was evaluated before and after the test, then a color optical density before the test (A0) and a color optical density after the test (A90) were measured, and a ratio (A90/A0) was defined as a residual rate. The residual rate was used as an indicator for a color developing durability. The higher the residual rate, the higher the color developing durability.
row,Compound,23°C color fading half-life [s]
1,CCCC1(CCC)c2ccccc2-c2c1c1c(c3cc(OC)c(N(c4ccccc4)c4ccccc4)cc23)OC(c2ccc(OC)cc2)(c2ccc(N3CCOCC3)cc2)C=C1 (stereo not shown) [Example 7 Formula (50)],44
2,CCCCC1(CCCC)c2cc(C(F)(F)F)ccc2-c2c1c1c(c3cc(C)c(N4CCc5ccccc54)cc23)OC(c2ccc(OC)cc2)(c2ccc(OC)c(C)c2)C=C1 (stereo not shown) [Formula (64A)],66
3,CCCc1ccc(C2(c3ccc(OC)cc3)C=Cc3c4c(c5cc(N6CCc7ccccc76)c(OC)cc5c3O2)-c2ccc(-c3ccc(C(F)(F)F)cc3)cc2C4(CCOC)CCOC)cc1 (stereo not shown) [Formula (85A)],56
4,CCCOc1ccc(C2(c3ccc(OC)cc3)C=Cc3c4c(c5cc(N6CCc7ccccc76)c(C)cc5c3O2)-c2ccccc2C4(CCC)CCC)cc1 (stereo not shown) [Formula (31A)],63

# Experiment: Residual rate (A90/A0×100) after 90 h accelerated deterioration in xenon weather meter X25, color developing durability
# Assay type: physicochemical
# Settings: photochromic laminate by coating method; xenon weather meter 90 hours; at 522 nm absorption maximum
# Procedure, shortened: as §1
row,Compound,Residual rate (%)
1,CCCC1(CCC)c2ccccc2-c2c1c1c(c3cc(OC)c(N(c4ccccc4)c4ccccc4)cc23)OC(c2ccc(OC)cc2)(c2ccc(N3CCOCC3)cc2)C=C1 (stereo not shown) [Example 7 Formula (50)],77

# Same assay, conditions: photochromic laminate by coating method; xenon weather meter 90 hours; at 615 nm absorption maximum
row,Compound,Residual rate (%)
1,CCCC1(CCC)c2ccccc2-c2c1c1c(c3cc(OC)c(N(c4ccccc4)c4ccccc4)cc23)OC(c2ccc(OC)cc2)(c2ccc(N3CCOCC3)cc2)C=C1 (stereo not shown) [Example 7 Formula (50)],76

# Same assay, conditions: photochromic laminate prepared by coating method; after 90 h accelerated deterioration
row,Compound,Residual rate [%]
1,CCCCC1(CCCC)c2cc(C(F)(F)F)ccc2-c2c1c1c(c3cc(C)c(N4CCc5ccccc54)cc23)OC(c2ccc(OC)cc2)(c2ccc(OC)c(C)c2)C=C1 (stereo not shown) [Formula (64A)],64
2,CCCc1ccc(C2(c3ccc(OC)cc3)C=Cc3c4c(c5cc(N6CCc7ccccc76)c(OC)cc5c3O2)-c2ccc(-c3ccc(C(F)(F)F)cc3)cc2C4(CCOC)CCOC)cc1 (stereo not shown) [Formula (85A)],65
3,CCCOc1ccc(C2(c3ccc(OC)cc3)C=Cc3c4c(c5cc(N6CCc7ccccc76)c(C)cc5c3O2)-c2ccccc2C4(CCC)CCC)cc1 (stereo not shown) [Formula (31A)],67
